These results are taken from US9844572B2, “Promotion of neuronal integration in neural stem cell grafts” (Life & Brain GmbH, priority 2009, dated 2017).

The subject of assay [1] is lt-hESNSC mixed with immature neurons on hippocampal rat slice cultures. In words: Transplantation onto rat hippocampal slice cultures (migration of human neurons from mixed grafts). Type of assay: cell-based. To be noted: 2 μg/ml BIBF1120, day 7. As to the method:
Using a vibroslicer, 400 μm horizontal sections were generated from the hippocampus of 9-10 day-old Wistar rats. The slices included the dentate gyrus and the entorhinal and temporal cortex (Scheffler et al., 2003; Opitz et al., 2007). They were transferred onto a polyester membrane and cultivated at 35° C., 5% CO2 and saturated air humidity in an initial culture medium containing 25% normal horse serum, which was gradually replaced after 3-5 days by chemically defined, serum-free culture medium based on DMEM/F12, N2 supplement and B27 supplement. Medium was changed every other day and 5-7 days after explantation a cell suspension of 50 000 cells in a 1 μl volume was spotted onto the entorhinal cortex of the slice using an injection device.
For immunohistochemical analysis of slice cultures (FIG. 4), cultures were fixed in 4% paraformaldehyde for 4 hours and subsequently washed several times with PBS. Slices were permeabilized/blocked with 0.1% Triton X-100+10% FCS for 6 hours at 25° C. Incubation with primary antibody was for 16 hours at room temperature, followed by washing steps with PBS for 5 hours. Incubation with the secondary antibodies was for 2 hours at room temperature.
To further investigate whether endostatin can also interfere with the chemoattractive effect of neural stem/progenitor cells on immature neurons in a context closer to an in vivo situation, hippocampal rat slice culture experiments were performed. HES-NSC70+N30 were pre-incubated for 30 minutes in 30 μl Cytocon™-Buffer II with either 2 μl stock solution endostatin (n=9) or with 2 μl of the solvent of endostatin (citric-phosphate buffer) as control (n=9), and then deposited on the entorhinal cortex of hippocampal slice cultures. Cultures of pure human neurons were transplanted as positive control (n=9). The slices were further cultured for 18 days after deposition of the cells. 1 μl/ml endostatin stock solution was continuously applied every day to the slice media.
To further investigate whether BIBF1120 can also interfere with the chemoattractive effect of neural stem/progenitor cells on immature neurons, hippocampal rat slice culture experiments were performed. Lt-hESNSC mixed with purified DCX-EGFP positive neurons (30.0000 lt-hESNSC mixed with 100.000 purified neurons per μl) were pre-incubated for 30 min. in Cytocon™-Buffer II with or without 2 μg/ml BIBF1120, respectively, and then deposited on the entorhinal cortex (EC) of hippocampal slice cultures. The slices were further cultured for 7 days after deposition of the cells. 2 μg/ml BIBF1120 was continuously applied every day to the slice media.

Another assay deals with human Neurons. In words: Dunn chamber migration assay (chemotaxis of immature neurons). The conditions noted are these: BIBF1120 (2 μg), 6 h recording; for chemotactic response of human neurons towards FGF2 gradient in presence of inhibitor: FGF2 200 ng/ml in outer well; for chemotactic response of human neurons towards VEGF gradient in presence of inhibitor: VEGF 200 ng/ml in outer well. Type of assay: cell-based. As to the method: FIG. 7A Dunn chamber migration assay. Schematic representation of a direct-viewing Dunn chemotaxis chamber showing the position of the inner well, the bridge, the outer well and the overlying coverslip (a) (Zicha et al., 1991 1998, Zhang et al., 2003). Adopted from Hawksley. Calculation of the forward migration index (FMI) during a 6 h recording period. FMI values can be either positive or negative, depending on the direction in which the cell is migrating (b).
FIG. 7B Directionality analysis of cell movement using scatter plots of cell displacement (c-i). The diagrams orientate such that the position of the outer well of the chamber are vertical (y direction). Each point represents the final position of a cell at the end of the recording period of 6-h; the starting point of migration is fixed at the intersection of the two axes. As control migration of human neurons was monitored in medium only (c). For assessing chemokinesis, equal amounts of FGF2 (d) or VEGF (e) were added to both the outer and the inner wells of the chamber. Chemotaxis was tested by placing FGF2 (f) or VEGF (g) in the outer well only. Migration of human neurons treated with BFBF1120 was monitored towards a FGF2 (h) and VEGF (i) gradient.
Chemotaxis of immature neurons was directly viewed and recorded in stable concentration gradients of FGF2 (200 ng/ml) or VEGF (200 ng/ml), respectively, with or without the addition of BIBF1120 ([…]) using a Dunn chemotaxis chamber (Allen et al., 1998 1998, Zhang et al., 2003). This device is made from a Helber bacteria counting chamber by grinding a circular well in the central platform to leave a 1 mm-wide annular bridge between the inner and the outer well. Chemoattractants added to the outer well of the chamber will diffuse across the bridge to the inner well and form a linear steady gradient within ˜30 min after loading the chamber (Zicha et al., 1991; Webb et al., 1996). To study chemotaxis, the outer well of the Dunn chamber can be filled with medium containing a chemoattractant, whereas the concentric inner well is filled with medium only. Coverslips carrying the cultured cells are inverted and placed onto the chamber. Cell locomotion is recorded through the annular bridge between the concentric inner and outer well. For assessing chemokinesis, the outer and inner wells are filled with equal concentrations of the chemoattractant. A period of 6 h was chosen to assess cell migration.
To determine the efficiency of forward migration during the 6 h recording period, the FMI was calculated as the ratio of forward progress to the total path length (Foxman et al., 1999; Zhang et al.).

In assay [2] the test system is lt-hESNSC. In words: BrdU cell proliferation assay. The conditions noted are these: BIBF1120 2 μg/ml for 20 h; BrdU 2.5 h. Type of assay: cell-based, human. How it is done: (§1) FIG. 9 The effect of BIBF1120 on lt-hESNSC proliferation and differentiation. The proliferative effect was measured in a BrdU proliferation assay of lt-hESNSC, either with or without BIBF1120 (a). Bars represent the percentage of BrdU positive cells, cultured for 20 hours in NSC-medium or in NSC-medium with BIBF1120 (2 μg/ml) and treated for 2.5 h with BrdU. The neurogenic effect of BIBF1120 on lt-hESNSC was studied (b). Bars represent the percentage of βIII tubulin-positive neurons in lt-hESNSC cultured for 10 days in neuronal generation medium or in neuronal generation medium with BIBF1120 (2 μg/ml).
For BrdU staining (FIG. 6A) 0.5% Triton X-100 in PBS was used for permeabilizing the cells. After washing, cells were incubated with 2 M HCl for 10 minutes, washed in PBS, equilibrated using 0.1 M borate buffer, washed again in PBS, followed by an incubation with the primary antibody diluted in blocking solution at room temperature over night. Staining with the secondary antibody was performed as described.
5′-bromo-T-deoxyuridine (BrdU) is a thymidine analog that incorporates into dividing cells during DNA synthesis. To determine whether BIBF1120 has an influence on the proliferation rate of lt-hESNSC, cells were cultured under neural proliferation medium with or without BIBF1120 (2 μg/ml) for 20 h. BrdU was added to the culture medium for 2.5 h. […]

Assay [3] deals with lt-hESNSC. In words: Neurogenesis assay (differentiation in neuronal generation medium). The conditions noted are these: 10 days in neuronal generation medium with BIBF1120 (2 μg/ml). Type of assay: cell-based, human. How it is done: as §1
Differentiation was studied by a neurogenesis assay. In this assay lt-hESNSC were cultured for 10 days in neuronal generation medium or in neuronal generation medium with BIBF1120 (2 μg/ml), fixed and stained for […].

Assay [4] deals with mitogen-activated protein kinase (MAPK) and Akt signalling pathways. To be noted: after 1-hour treatment; cell culture; cited from earlier work.

Molecules are shown by their SMILES.

On to `COC(=O)c1ccc2c(c1)NC(=O)/C2=C(\Nc1ccc(N(C)C(=O)CN2CCN(C)CC2)cc1)c1ccccc1` [BIBF1120, 3-Z-[1-(4-(N-((4-methyl-piperazin-1-yl)-methylcarbonyl)-N-methyl-amino)-anilino)-1-phenyl-methylene]-6-methoxycarbonyl-2-indolinone], for which, in assay [1], the “migration along the z-axis” value is recorded as “easily migrated throughout the entire slice tissue”; the “total number of human neurons within 10 μm thick optical plane, bottom of the slice” value is given as 14±7.8; the “total number of human neurons within 10 μm thick optical plane, middle of the slice” value is reported as 14.6±6.1. The “number of neurons migrated beyond a 250 μm perimeter around the deposition site, increase vs control” value in assay [1] (xy-axis) was “two-fold increase”. For the same molecule, the “migration horizontally over the slice compared to control population” value in assay [1] (lt-hESNSC mixed with purified neurons) is “enhanced migration and integration capacity”. Also, in the assay on human Neurons, the “chemotactic response of human neurons towards FGF2 gradient in presence of inhibitor” value is “lost their chemotactic response” and the “chemotactic response of human neurons towards VEGF gradient in presence of inhibitor” value was “lost their chemotactic response”. Further, in the assay with human Neurons (listed as BFBF1120), the “chemotactic response of human neurons towards FGF2 gradient in presence of inhibitor” value was “loose this chemotactic response” and the “chemotactic response of human neurons towards VEGF gradient in presence of inhibitor” value is on record as “loose this chemotactic response”. In addition, the “proliferation rate (BrdU positive cells) vs untreated control” value with lt-hESNSC [2] is reported as “no significant difference”. In addition, the “differentiation (βIII tubulin-positive neurons)” value in the assay on lt-hESNSC [3] is “not significantly influenced”. For the same molecule, the “duration of sustained pathway inhibition” value in assay [4] was “up to 32 hours”.
